# Reference: patent US20250263370A1 (Tay Therapeutics Limited, priority 2022, published 2025)
# Values joined by “and” are separate entries in the source; they are usually repeats but may differ in a detail not shown here. Equal values may be shown once. Read-outs that look alike come from different tables or passages of the source.
# Experiment: Pharmacokinetics and plasma concentration of Example 101 in Lewis rats after oral administration (CIA study)
# Format: in vivo, Lewis rat
# Conditions: oral, oral; for concentration at 0.5 h / concentration at 1 h / concentration at 2 h / concentration at 4 h / concentration at 10 h / concentration at 12 h / concentration at 0.25 h / concentration at 8 h / concentration at 14 h / concentration at 24 h / concentration at 21 day / AUC(0-inf) / AUC(0-t) / half-life / Cmax / MRT inf / Tmax: Lewis, rat, plasma; for concentration at 0.5 h / concentration at 1 h / concentration at 2 h / concentration at 4 h / concentration at 10 h / concentration at 12 h / concentration at 0.25 h / concentration at 8 h / concentration at 14 h / concentration at 24 h / AUC(0-inf) / AUC(0-t) / half-life / Cmax / MRT inf / Tmax: 10 mg/kg; for concentration at 21 day: 30 mg/kg, Day 21, Group 7 (CIA); for AUC(0-inf) / AUC(0-t) / half-life / Cmax / MRT inf / Tmax: po; for Cmax: read-out: Cmax; for MRT inf: read-out: MRTInf—obs; for Tmax: read-out: Tmax
# [1] = day 0, 10 mg/kg, read-out: Mean Concentration
# [2] = day 20, 10 mg/kg, read-out: Mean Concentration
# [3] = day 0, 10 mg/kg, per test subject
# [4] = day 20, 10 mg/kg, per test subject
structure (smiles),measurement,setting,value
"CNC(=O)c1[nH]c(C(=O)NC2CCC2)cc1O[C@@H](C)c1ccccc1 (stereo in doubt) [Example 101, N^5-cyclobutyl-N^2-methyl-3-(1-phenylethoxy)-1H-pyrrole-2,5-dicarboxamide]",concentration at 0.5 h,"day 20, 10 mg/kg, 0.5 h, per test subject, read-out: Plasma concentration",1660 ng/mL
same,concentration at 1 h,"day 20, 10 mg/kg, 1 h, per test subject, read-out: Plasma concentration",1600 ng/mL
same,concentration at 2 h,"day 20, 10 mg/kg, 2 h, per test subject, read-out: Plasma concentration",841 ng/mL
same,concentration at 4 h,"day 20, 10 mg/kg, 4 h, per test subject, read-out: Plasma concentration",452 ng/mL
same,concentration at 10 h,"day 20, 10 mg/kg, 10 h, per test subject, read-out: Plasma concentration",1170 ng/mL
same,concentration at 12 h,"day 20, 10 mg/kg, per test subject, read-out: Plasma concentration",258 ng/mL
same,concentration at 0.25 h,[1],502 ng/mL
same,concentration at 0.5 h,"day 0, 10 mg/kg, 0.5 h, read-out: Mean Concentration",706 ng/mL
same,concentration at 1 h,"day 0, 10 mg/kg, 1 h, read-out: Mean Concentration",1270 ng/mL
same,concentration at 2 h,"day 0, 10 mg/kg, 2 h, read-out: Mean Concentration",1240 ng/mL
same,concentration at 4 h,"day 0, 10 mg/kg, 4 h, read-out: Mean Concentration",997 ng/mL
same,concentration at 8 h,"day 0, 10 mg/kg, 8 h, read-out: Mean Concentration",148 ng/mL
same,concentration at 10 h,"day 0, 10 mg/kg, 10 h, read-out: Mean Concentration",1930 ng/mL
same,concentration at 12 h,[1],799 ng/mL
same,concentration at 14 h,[1],439 ng/mL
same,concentration at 24 h,"day 0, 10 mg/kg",57 ng/mL
same,concentration at 0.25 h,[2],1410 ng/mL
same,concentration at 0.5 h,"day 20, 10 mg/kg, 0.5 h, read-out: Mean Concentration",1650 ng/mL
same,concentration at 1 h,"day 20, 10 mg/kg, 1 h, read-out: Mean Concentration",1640 ng/mL
same,concentration at 2 h,"day 20, 10 mg/kg, 2 h, read-out: Mean Concentration",1140 ng/mL
same,concentration at 4 h,"day 20, 10 mg/kg, 4 h, read-out: Mean Concentration",494 ng/mL
same,concentration at 8 h,"day 20, 10 mg/kg, 8 h, read-out: Mean Concentration",169 ng/mL
same,concentration at 10 h,"day 20, 10 mg/kg, 10 h, read-out: Mean Concentration",1450 ng/mL
same,concentration at 12 h,[2],406 ng/mL
same,concentration at 14 h,[2],138 ng/mL
same,concentration at 24 h,"day 20, 10 mg/kg",25 ng/mL
same,concentration at 21 day,"per animal, read-out: Plasma Concentration",2290 ng/mL
same,concentration at 21 day,read-out: Mean Plasma Concentration,1580 ng/mL
same,AUC(0-inf),"Lewis rats, day 20, mean",10700 ng·h/mL
same,AUC(0-t),"Lewis rats, day 20, mean",10600 ng·h/mL
same,half-life,"Lewis rats, day 20, mean",197 min
same,Cmax,"Lewis rats, day 20, mean",1710 ng/mL
same,MRT inf,"Lewis rats, day 20, mean",6.66 h
same,Tmax,"Lewis rats, day 20, mean",40.2 min
same,AUC(0-inf),"day 0, 10 mg/kg, Mean",15400 ng·h/mL
same,AUC(0-t),"day 0, 10 mg/kg, Mean",15000 ng·h/mL
same,half-life,"day 0, 10 mg/kg, Mean",193 min
same,Cmax,"day 0, 10 mg/kg, Mean",1980 ng/mL
same,MRT inf,"day 0, 10 mg/kg, Mean",8.61 h
same,Tmax,"day 0, 10 mg/kg, Mean",438 min
same,AUC(0-inf),[3],14300 ng·h/mL
same,AUC(0-t),[3],14300 ng·h/mL
same,Cmax,[3],1880 ng/mL
same,MRT inf,[3],7.64 h
same,AUC(0-inf),[4],8500 ng·h/mL
same,AUC(0-t),[4],8420 ng·h/mL
same,half-life,[4],208 min
same,Cmax,[4],1660 ng/mL
same,MRT inf,[4],6.09 h
same,Tmax,[4],30 min
same,Plasma concentration,"day 0, 10 mg/kg, 0.5 h, per test subject",673 ng/mL and 707 ng/mL
same,Plasma concentration,"day 0, 10 mg/kg, 1 h, per test subject",1160 ng/mL and 1550 ng/mL
same,Plasma concentration,"day 0, 10 mg/kg, 2 h, per test subject",997 ng/mL and 1610 ng/mL
same,Plasma concentration,"day 0, 10 mg/kg, 4 h, per test subject",1060 ng/mL and 760 ng/mL
same,Plasma concentration,"day 0, 10 mg/kg, 8 h, per test subject",107 ng/mL and 147 ng/mL
same,Plasma concentration,"day 0, 10 mg/kg, 10 h, per test subject",2460 ng/mL and 1460 ng/mL
